Assay results published in US20130039928A1, “COMPOSITIONS AND METHODS FOR REVERSING CORTICOSTEROID RESISTANCE OR TREATING RESPIRATORY INFECTIONS” (priority 2010, published 2013).

Experiments:
[1] = test system: IL-8 promoter; assay: ChIP of IL-8 promoter (histone acetylation, HDAC2 binding) in alveolar macrophages; format: cell-based, human
Description: For inducing corticosteroid resistance, PMs were exposed to cigarette smoke condensate (CSC, 100 μg/ml; Murty Pharmaceuticals, Lexington, Ky.) for 16 h. Exposure to S-nitrosoglutathione (GSNO, 10 μM) was limited to 4 h. […] For assessing corticosteroid responsiveness, macrophages were incubated with dexamethasone (1 μM, Sigma) for 1 h followed by LPS (100 ng/ml, Sigma) for additional 4 h.
Chromatin immunoprecipitation was performed as described previously (Hogg, J. C. & Timens, W., Annu Rev Pathol (2008)). Briefly, cells were fixed in ˜1% formaldehyde in cell growth media for 10 minutes followed by glycine fixation. Cells were then sonicated in ChIP-lysis buffer containing a protease inhibitor cocktail after incubation on ice for 30 minutes. […] sonication, the samples were spun at maximum speed for 12 minutes in a cold microcentrifuge. The supernatants were then addressed as input samples. A part of the input sample was precleared by using a 50% slurry of protein A/G beads prepared in immunoprecipitation (IP) buffer for 2 hours in the cold, following which the beads were centrifuged out and the supernatant was used for IP. Then the precleared samples were incubated with 2 μg of panacetylated histone H4 antibody (ChIP assay kit; Upstate Biotechnology) or anti-HDAC2 antibody from Santa Cruz Biotechnology. As a control, anti-rabbit IgG antibody was added for 1 hour in the cold. The protein A/G bead slurry was added to each reaction and was rotated overnight. The next day, the beads were washed extensively, and the DNA was reverse crosslinked, eluted in elution buffer, and stored at −80° C. until used for sequencing or PCR validation assays. […] This immunoprecipitated DNA was used for PCR amplification by using the specific gene (IL-8 for humans and MCP-1 for mice) promoter PCR assays. PCR primers were used for the IL-8 promoter (forward: 5′-[…]-3′ and reverse: 5′-[…]-3′) and the MCP-1 promoter (forward: 5′-[…]-3′ and reverse: 5′-[…]-3′).

[2] = test system: nontypeable Haemophilus influenzae
Description: Human alveolar macrophages were purified from individual BAL samples by centrifugation and seeded onto 6-well tissue culture plates. After incubation for 2 h, non-adherent cells were removed and the adherent cells were incubated with R, S-sulforaphane (5 μM; LKT Laboratories, Inc., St. Paul, Minn.) and or DMSO in RPMI 1640 culture medium with 10% FBS and 1% penicillin-streptomycin (Invitrogen, Carlsbad, Calif.). After 16-20 h, adherent cells were scraped, suspended in RPMI 1640 culture media and plated onto 96-well tissue culture plates for bacterial phagocytosis and clearance assays. […] For MARCO antibody-depletion, alveolar macrophages were incubated with human anti-MARCO antibody (1 μg/ml; (Hycult, Uden, The Netherlands) for 4 hours prior to bacterial challenge. […]
After treatment, macrophages (10^5 cells) were incubated with bacteria (PA or NTHI) for 4 h. […] The number of bacterial colonies was counted after 24 h.

[3] = test system: HDAC2
Description: Whether sulforaphane increase HDAC2 activity in lungs of cigarette smoke exposed mice was determined.
Mice (C57BL/6 strain, 8-10 weeks old) were used for the studies. Exposure to CS (1 month) was carried out as described previously (Malhotra, D., et al., Am J Respir Crit Care Med 178, 592-604 (2008)). Residential peritoneal macrophages (PMs) isolation was carried out as described previously (Singh, A., et al., PLoS Med 3, e420 (2006)). Alveolar macrophages from mouse were isolated from bronchoalveolar lavage (BAL) fluid (Crimi, E., et al., Free Radic Biol Med 40, 398-406 (2006)).
HDAC activity was measured using a fluorescent derivative of ε-acetyl-lysine from Enzo life sciences (Farmingdale, N.Y.) according to the manufacturer's recommendations. HDAC2 was immunoprecipitated for analysis of enzymatic activity.

[4] = test system: elastase; conditions: alveolar macrophages treated with or without sulforaphane

`C[S+]([O-])CCCCN=C=S` (stereo not drawn) [sulforaphane] was tested, and the “HDAC2 binding in the IL-8 promoter” value ([1]; COPD alveolar macrophages) was “significantly increased the levels of HDAC2 binding”, the “HDAC2 binding in the IL-8 promoter” value ([1]; in the presence of buthionine sulfoximine) was “failed to increase HDAC2 binding” and the “histone acetylation on the IL-8 promoter” value ([1]; sulforaphane treatment with DEX) was “concomitant reduction”. The “histone acetylation in IL-8 promoter” value ([1]; sulforaphane, baseline and after LPS) was “decrease in histone acetylation”, the “clearance of nontypeable Haemophilus influenzae (decrease in CFU in culture medium)” value ([2]; COPD alveolar macrophages, compared to vehicle, 4 h with bacteria) was 40-95% and the “bactericidal activity towards nontypeable Haemophilus influenzae” value ([2]; cell-free medium with sulforaphane alone) was “no bactericidal activity”. For the same compound, the “levels of SNO-HDAC2 in lungs” value ([3]; CS-exposed mice) was “reduced the levels of SNO-HDAC2”, the “GSH levels in lungs” value ([3]; cigarette smoke-exposed mice) was “increased GSH levels” and the “HDAC2 enzymatic activity in lungs” value ([3]; cigarette smoke-exposed mice) was “significant increase”. The “HDAC2 protein in lungs” value ([3]; cigarette smoke-exposed mice) was “significant increase”, the “total HDAC enzymatic activity in lungs” value ([3]; cigarette smoke-exposed mice) was “significant increase” and the “elastase activity in cell free media” value [4] was “inhibition of elastase activity”.
